# Measured values as given in patent publication US9745302B2 (TriOptoTec GmbH, priority 2011, dated 2017).
# Counter-ions that a name gives are not always drawn.
# Experiments:
# [1] = system: Staphylococcus aureus (ATCC number: 25923); test: Phototoxicity test (photodynamic inactivation, CFU count by Miles and Misra); assay type: cell-based; conditions: irradiated at 50 mW/cm^2, 210 sec, 390-500 nm, CFU/ml counted after 24 h, median of 3
# Method: (§1) A sample of the bacterial strain Staphylococcus aureus (ATCC number: 25923) or Escherichia coli (ATCC number: 25922) was taken from a cryogenically frozen culture, isolated on Müller-Hinton agar plates and cultivated under aerobic conditions at 37° C. in an overnight culture. Thereafter, 5 ml of Müller-Hinton liquid medium were inoculated with a smear of the bacterial culture (single colony) and incubated at 37° C. overnight. The bacterial suspension thus obtained was centrifuged at 2500 rpm for 10 min and the bacterial pellet obtained was resuspended in 5 ml of sterile PBS. The optical density of the bacterial suspension for the phototoxicity tests was OD600 nm=0.6, which corresponds to a bacteria count of ˜[…] bacteria per ml. The biochemical analysis and resistance determination of the bacteria were conducted with the VITEK2 system according to the M100-S14 guidelines from the NCCLS (2004).
# (§2) 200 μl of a bacterial suspension (bacterial density: 10^8-10^12/ml) were incubated with 200 μl of each of various concentrations of the photosensitizers to be tested at room temperature for 10 min or 30 min. Thereafter, the bacteria were washed twice with distilled water and resuspended in 200 μl of distilled water, and the entire volume was transferred to a 96-well microtiter plate and then irradiated. The photosensitizers used were dissolved in distilled water and various dilution series were prepared (0 μM, 1 μM, 10 μM, 100 μM).
# (§3) For sensitization, the Omnicure Series 2000 lamp (Photonics Solutions Inc., Edinburgh, UK) was used, which emits light from a range from 390 nm to 500 nm and has emission maxima Emax at 405 nm and 436 nm. The power applied in each case was 50 mW/cm^2.
# (§4) Irradiated and unirradiated samples were used as controls. Likewise run were bacterial suspensions incubated only with photosensitizer (dark control).
# (§5) The determination of the colony-forming units (CFU) per ml was conducted by the method published by Miles and Misra (Miles, A A; Misra, S S, Irwin, J O (1938 November). “The estimation of the bactericidal power of the blood.”. The Journal of hygiene 38 (6): 732-49). For this purpose, serial dilutions from 10^−2 to 10^−9 of the corresponding bacterial suspension were prepared. 3×20 μl of each of the corresponding bacterial dilutions were then dripped onto Müller-Hinton plates and incubated at 37° C. for 24 h. Thereafter, the number of surviving colony-forming units (CFU) was determined. Each of the experiments was repeated three times.
# (§6) The effectiveness of phototoxicity with respect to bacteria after irradiation was defined according to the following guidelines for hand hygiene in the health sector (Boyce, J. M., and D. Pittet. 2002. Guideline for Hand Hygiene in Health-Care Settings: recommendations of the Healthcare Infection Control Practices Advisory Committee and the HICPAC/SHEA/APIC/IDSA Hand Hygiene Task Force. Infect Control Hosp Epidemiol 23: p. 3-40): • reduction in the CFU/ml by 1 log10 stage ? 90% effectiveness • reduction in the CFU/ml by 3 log10 stages ? 99.9% effectiveness • reduction in the CFU/ml by 5 log10 stages ? 99.999% effectiveness
# (§7) For effective inactivation, the decrease of ≧3 log10 stages can therefore be adopted, and S. aureus and E. coli were chosen as examples of representatives from the group of the Gram-positive and Gram-negative bacteria (see Boyce J. M and D. Pittet 2009).
# [2] = system: Escherichia coli (ATCC number: 25922); test: as above; assay type: cell-based; conditions: irradiated at 50 mW/cm^2, 210 sec, 390-500 nm, CFU/ml counted after 24 h, median of 3
# Method: as §1, §2, §3, §4, §5, §6, §7
Structure (SMILES),"Required concentration [μM] to achieve a reduction by ≧3log10 stages (decrease by 99.9%), irradiation at 10.5 J/cm^2, S. aureus ([1]; incubation 10 min) [μM]","Required concentration [μM] to achieve a reduction by ≧3log10 stages (decrease by 99.9%), irradiation at 10.5 J/cm^2, E. coli ([2]; incubation 10 min) [μM]","Required concentration [μM] to achieve a reduction by ≧3log10 stages (decrease by 99.9%), irradiation at 10.5 J/cm^2, S. aureus ([1]; incubation 30 min) [μM]","Required concentration [μM] to achieve a reduction by ≧3log10 stages (decrease by 99.9%), irradiation at 10.5 J/cm^2, E. coli ([2]; incubation 30 min)"
Cc1cc2nc3c(=O)[nH]c(=O)nc-3n(CC(OC(=O)C(N)CCCCN)C(OC(=O)C(N)CCCCN)C(COC(=O)C(N)CCCCN)OC(=O)C(N)CCCCN)c2cc1C (centres unmarked),10,10,–,–
"Cc1cc2nc3c(=O)n(CCN)c(=O)nc-3n(CCN)c2cc1C [FL-02, 3,10-bis(2′-aminoeth-1′-yl)-7,8-dimethylbenzo[g]pteridine-2,4-dione hydrochloride]",10,10,–,–
"CC(=O)OCC(OC(C)=O)C(OC(C)=O)C(Cn1c2nc(=O)n(CCC[n+]3ccc(-c4cc[n+](C)cc4)cc3)c(=O)c-2nc2cc(C)c(C)cc21)OC(C)=O.[I-].[I-] (centres unmarked) [FL-08, 1-{3-[7,8-dimethyl-2,4-dioxo-10-(2,3,4,5-tetraacetoxypentyl)-4,10-dihydro-2H-benzo[g]pteridin-3-yl]propyl}methyl-[4,4′]bipyridinyl-1-ium diiodide]",1,1,–,–
"CCCCn1c2nc(=O)n(CCC[n+]3ccc(-c4cc[n+](C)cc4)cc3)c(=O)c-2nc2cc(C)c(C)cc21.[I-].[I-] [FL-08b, 1-{3-[7,8-dimethyl-2,4-dioxo-10-(butyl)-4,10-dihydro-2H-benzo[g]pteridin-3-yl]-propyl}methyl-[4,4′]bipyridinyl-1-ium diiodide]",10,50,–,–
"CC[N+](CC)(CC)Cc1cc2c(cc1C)nc1c(=O)n(CCN)c(=O)nc-1n2CCN.Cl.Cl.[Br-] [FL-13, [3,10-bis(2-aminoethyl)-7-methyl-2,4-dioxo-2,3,4,10-tetrahydro-benzo[g]pteridin-8-ylmethyl]triethylammonium bromide dihydrochloride]",–,–,10,10 μM
"CCCCn1c2nc(=O)n(CC[N+](C)(C)C)c(=O)c-2nc2cc(C)c(C[N+](CC)(CC)CC)cc21.[Br-].[Br-] [FL-15, [10-butyl-3-(2-trimethylammoniumethyl)-7-methyl-2,4-dioxo-2,3,4, 10-tetrahydrobenzo[g]pteridin-8-ylmethyl]triethylammonium dibromide]",–,–,10,10 μM
"Cc1cc2nc3c(=O)n(CC[N+](C)(C)C)c(=O)nc-3n(CC[N+](C)(C)C)c2cc1C.[I-].[I-] [FL-17, 3,10-bis(2-trimethylammoniumethyl)-7,8-dimethyl-10H-benzo[g]pteridine-2,4-dione dibromide]",–,–,100,100 μM
"Cc1cc2nc3c(=O)n(CCN)c(=O)nc-3n(CC[N+](C)(C)CCN)c2cc1C.Cl.Cl.[Cl-] [FL-24, (2-aminoethyl)-{2-[3-(2-aminoethyl)-7,8-dimethyl-2,4-dioxo-3,4-dihydro-2H-benzo[g]pteridin-10-yl]ethyl}dimethylammonium chloride dihydrochloride]",–,–,10,>100^(*^) μM
"Cc1cc2nc3c(=O)n(CC[N+](C)(C)C)c(=O)nc-3n(CC[N+](C)(C)CC[N+](C)(C)C)c2cc1C.[Br-].[Br-].[Br-] [FL-26, 3-(2-trimethylammoniumethyl)-10-{2-[(2-trimethylammoniumethyl)dimethyl-ammonium]ethyl}-7,8-dimethyl-10H-benzo[g]pteridine-2,4-dione tribromide]",–,–,10,>100^(*^) μM
"Cc1cc2nc3c(=O)[nH]c(=O)nc-3n(CCNCCN)c2cc1C.Cl.Cl [FL-27, (2-aminoethyl)-[2-(7,8-dimethyl-2,4-dioxo-3,4-dihydro-2H-benzo[g]pteridin-10-yl)ethyl]amine dihydrochloride]",–,–,10,100 μM
